Structures can show the parent of a compound that is named as a salt.
Biological target: T1, human neuropeptide Y5 receptor (Homo sapiens, UniProt Q15761)
T1 construct: expressed in transfected cells; host or cells: HEK-293 (stably transfected, G-418 selected); membranes
T1 sequence (Q15761 1-445): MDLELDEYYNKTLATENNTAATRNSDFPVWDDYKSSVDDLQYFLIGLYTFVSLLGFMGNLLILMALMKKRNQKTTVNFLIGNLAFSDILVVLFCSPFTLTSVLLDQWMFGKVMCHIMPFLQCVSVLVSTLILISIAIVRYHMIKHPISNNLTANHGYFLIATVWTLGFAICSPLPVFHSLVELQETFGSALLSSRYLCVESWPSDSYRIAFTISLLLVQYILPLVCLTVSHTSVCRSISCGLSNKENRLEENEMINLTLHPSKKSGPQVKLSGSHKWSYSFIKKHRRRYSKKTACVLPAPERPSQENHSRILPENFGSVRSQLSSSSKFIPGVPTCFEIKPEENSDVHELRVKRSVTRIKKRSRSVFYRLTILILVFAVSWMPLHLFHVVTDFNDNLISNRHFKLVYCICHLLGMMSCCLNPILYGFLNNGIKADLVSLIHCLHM
Assay: NPY5 HTS centrifugation assay: competition with 125I-PYY for binding to membranes of NPY5-transfected HEK293 cells
Conditions: 80 pM 125I-PYY, 1 hr room temperature; for inhibition at 0.3 µM / % Inh @ 300 nM (% Inhibition of 125I-PYY Binding): 300 nM compound; for inhibition at 0.3 µM: read-out: % Inh @ 300 nM (% Inhibition of 125I-PYY Binding); for inhibition at 3 µM / % Inh @ 3 uM (% Inhibition of 125I-PYY Binding): 3 uM compound; for inhibition at 3 µM: read-out: % Inh @ 3 uM (% Inhibition of 125I-PYY Binding)
Method: The compounds described in this invention were evaluated for binding to the human neuropeptide Y5 receptor.
Stably transfected cells served as the source for the membranes for the NPY5 receptor binding assay.
NPY5-transfected HEK293 cells were grown to confluence in 150 cm^2 culture dishes. […] Cells were then incubated in phosphate-buffered saline without Calcium and without Magnesium, supplemented with 2 mM EDTA. Cells were incubated for 10 minutes at room temperature and the cells were collected by repetitive pipeting. Cells were formed into pellets and then frozen at −80 until needed. Frozen pellets were homogenized with a polytron at full speed for 12 seconds in a homogenization buffer (20 mM Tris HCl, 5 mM EDTA, pH 7.4). Homogenates were centrifuged for 5 minutes at 4 C at 200 g. Supernatants were transferred to corex tubes and centrifuged for 25 minutes at 28,000 g. Pellets were re-suspended in Binding (20 mM HEPES, 10 mM NaCl, 0.22 mM KH2PO4, 1.3 mM CaCl2, 0.8 mM MgSO4, pH 7.4). Membranes were kept on ice until use.
Compounds to be tested were prepared as 10× stocks in binding buffer and added first to assay tubes (RIA vials, Sarstedt). […] To each tube is added 100 μL of membranes and the mixture is agitated by pipeting 2 times. Samples are incubated for 1 hr at room temperature. Aluminum cast plates (Sarstedt) containing the vials are then centrifuged 10 minutes at 3200 rpm in a Sorvall RT6000. Supernatant is then aspirated. To each vial 400 μL PBS is added and this is then aspirated again. Vials are then put in carrier polypropylene 12×75 tube and counted in gamma counter (Packard). Non-specific binding is determined in the presence of 300 nM NPY. […] These operations are known to those skilled in the art.

SMILES | inhibition at 0.3 µM | inhibition at 3 µM | % Inh @ 300 nM (% Inhibition of 125I-PYY Binding) | % Inh @ 3 uM (% Inhibition of 125I-PYY Binding)
O=C(CN1CCC(NS(=O)(=O)c2ccccc2F)CC1)NCC(Cc1cccnc1)c1ccc(F)cc1 (stereo not shown) [Compound 30, N-[2-(4-Fluorophenyl)-3-(3-pyridinyl)propyl]-4-[(2-fluorophenylsulfonyl)amino]-1-piperidineacetamide bis-trifluoroacetate] | 100% | 110% |  | 
O=C(CN1CCC(NS(=O)(=O)c2ccccc2)CC1)NC1CCc2cc(F)ccc2C1Cc1cccnc1 (stereo not shown) [Compound 48] |  |  | 97% | 103%
NC(CCCCNS(=O)(=O)c1ccccc1)C(=O)NC1CCc2ccccc2C1Cc1cccnc1 (mixture of isomers) [Compound 33] |  |  | 52% | 96%
O=C(CN1CCC(n2c(=O)[nH]c3ccccc32)CC1)NC1CCc2ccccc2C1Cc1cccnc1 (stereo not shown) [Compound 31] |  |  | 91% | 100%
COc1ccc2c(c1)CCC(NC(=O)[C@H](CCCCNS(=O)(=O)c1ccccc1F)NC(C)=O)C2Cc1cccnc1 (stereo partly drawn) [Compound 10, (2S)-2-(Acetylamino)-6-[(2-fluorophenylsulfonyl)amino]-N-[cis-1,2,3,4-tetrahydro-6-methoxy-1-(3-pyridinylmethyl)-2-naphthenyl]hexanamide bis-hydrochloride] | 60% | 96% |  | 
CC(C)(C)OC(=O)NC1CCN(CC(=O)NC2CCc3cc(F)ccc3C2Cc2cccnc2)C1 (stereo not shown) [Compound 55] |  |  | 96% | 106%
O=C(CN1CCC(n2c(=O)[nH]c3ccccc32)CC1)N[C@H]1CCc2cc(O)ccc2[C@H]1Cc1cccnc1 (relative stereo) [Compound 23, 4-(2,3-Dihydro-2-oxo-1H-benzimidazol-1-yl)-N-[cis-1,2,3,4-tetrahydro-6-hydroxy-1-(3-pyridinylmethyl)-2-naphthalenyl]-1-piperidineacetamide bis-hydrochloride] | 96% | 100% |  | 
O=C(CN1CCC(NC(=O)c2ccccc2)C1)NC1CCc2cc(F)ccc2C1Cc1cccnc1 (mixture of isomers) [Compound 60] |  |  | 86% | 109%
NC(=O)NC(CCCCNS(=O)(=O)c1ccccc1)C(=O)NC1CCc2ccccc2C1Cc1cccnc1 (mixture of isomers) [Compound 41] |  |  | 54% | 94%
CC(C)(C)NC(=O)NC1CCN(CC(=O)NC2CCc3cc(F)ccc3C2Cc2cccnc2)CC1 (stereo not shown) [Compound 53] |  |  | 84% | 92%
COc1ccc2c(c1)CCC(NC(=O)CN1CCC(n3c(=O)[nH]c4ccccc43)CC1)C2Cc1ccsc1 (stereo not shown) [Compound 61] |  |  | 66% | 87%
CCNC(CCCCNS(=O)(=O)c1ccccc1)CNC1CCc2ccccc2C1Cc1cccnc1 (mixture of isomers) [Compound 68] |  |  | 109% | 108%
NC(CCCCNS(=O)(=O)c1ccccc1)CNC1CCc2ccccc2C1Cc1cccnc1 (single isomer, unassigned) [Compound 66] |  |  | 98% | 102%
CC(=O)NC(CCCCNS(=O)(=O)c1ccccc1)C(=O)NC1CCc2ccccc2C1Cc1cccnc1 (mixture of isomers) [Compound 37] |  |  | 89% | 102%
O=C(CN1CCC(NS(=O)(=O)c2ccccc2)C1)NC1CCc2cc(F)ccc2C1Cc1cccnc1 (mixture of isomers) [Compound 59] |  |  | 90% | 93%
O=C(Cc1ccccc1)NC1CCN(CC(=O)NC2CCc3cc(F)ccc3C2Cc2cccnc2)CC1 (stereo not shown) [Compound 47] |  |  | 91% | 98%
CC(C)(C)OC(=O)NC1CCN(CC(=O)NC2CCc3cc(F)ccc3C2Cc2cccnc2)CC1 (stereo not shown) [Compound 54] |  |  | 99% | 100%

Source: patent publication US7071195B2, “Amine and amide derivatives as ligands for the neuropeptide Y Y5 receptor useful in the treatment of obesity and other disorders” (Ortho-McNeil Pharmaceutical, Inc., priority 1999, dated 2006)
